Assay results as given in patent US6057311A, “Benzodiazonine derivatives binding to cholecystokinin or gastrin receptors” (James Black Foundation Limited, priority 1996, dated 2000).

Key:
[1] = target: T1, CCKB receptor (Mus musculus, UniProt P56481); test: radioligand binding assay at the CCKB receptor in mouse cortical membranes ([125I]-CCK8S); conditions: [125I]-CCK8S 200 pM, 150 min at 21±3° C.; for pKi (Mouse cortex): pH 7.2; for Ki: pH 7.2, read-out: pKi (Mouse cortex) (converted)
T1 construct: The cortex was dissected, weighed and homogenised in 40 ml ice-cold buffer; tissue Charles River (animals); host or cells: cerebral cortex of male CD1 mice, membranes
T1 sequence (P56481 1-453): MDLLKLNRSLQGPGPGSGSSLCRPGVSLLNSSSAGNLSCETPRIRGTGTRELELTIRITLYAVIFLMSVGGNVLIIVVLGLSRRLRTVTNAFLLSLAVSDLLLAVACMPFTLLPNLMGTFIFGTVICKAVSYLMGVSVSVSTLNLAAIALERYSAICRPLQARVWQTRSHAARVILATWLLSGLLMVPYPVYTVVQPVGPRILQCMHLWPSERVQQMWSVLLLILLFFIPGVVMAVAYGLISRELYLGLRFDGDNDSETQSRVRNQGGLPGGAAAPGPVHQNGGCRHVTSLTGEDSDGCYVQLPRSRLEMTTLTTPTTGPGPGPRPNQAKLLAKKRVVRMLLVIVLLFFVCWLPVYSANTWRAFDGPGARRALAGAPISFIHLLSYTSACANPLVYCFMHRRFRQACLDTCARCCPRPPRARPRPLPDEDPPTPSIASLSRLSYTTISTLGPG
In short: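 Male CD1 mouse cortical membranes (2 mg/ml original wet weight) were incubated 150 min at 21±3 °C in HEPES buffer pH 7.2 (130 mM NaCl, 4.7 mM KCl, 5 mM MgCl2, 1 mM EDTA, bacitracin) with [125I]-CCK8S and competitor. Non-specific binding was defined with L-365,260; bound label was measured by GF/B filtration and gamma counting.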

[2] = target: T2, CCKA (Cavia porcellus, UniProt Q63931); test: CCKA binding assay, guinea pig pancreas membranes ([125I]-CCK8(S)); conditions: [125I]-CCK8(S) 200 pM, 0.375 μM PD134,308, 150 min at 21±3° C.; for pKi (Guinea pig pancreas): pH 7.2; for Ki: pH 7.2, read-out: pKi (Guinea pig pancreas) (converted)
T2 construct: The pancreatata were removed from male guinea-pigs; from tissue; host or cells: pancreas of male Dunkin Hartley guinea pigs, membranes
T2 sequence (Q63931 1-430): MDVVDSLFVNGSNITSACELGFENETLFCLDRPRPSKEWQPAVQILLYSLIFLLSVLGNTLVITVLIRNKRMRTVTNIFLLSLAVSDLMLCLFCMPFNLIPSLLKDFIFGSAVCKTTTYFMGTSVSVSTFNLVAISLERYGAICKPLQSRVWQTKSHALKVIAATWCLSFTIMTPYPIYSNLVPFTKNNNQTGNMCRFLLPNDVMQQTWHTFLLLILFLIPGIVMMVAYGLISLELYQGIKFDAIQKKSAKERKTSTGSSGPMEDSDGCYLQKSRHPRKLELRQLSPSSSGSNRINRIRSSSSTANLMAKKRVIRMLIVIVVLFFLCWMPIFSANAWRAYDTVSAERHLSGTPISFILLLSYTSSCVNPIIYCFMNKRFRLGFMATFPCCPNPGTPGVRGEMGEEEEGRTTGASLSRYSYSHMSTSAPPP
In short: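 Guinea-pig pancreatic membranes (1 mg/ml original wet weight, containing 0.375 μM PD134,308) were incubated 150 min at 21±3 °C in HEPES pH 7.2 with [125I]-CCK8(S), added at 200 pM, and competitor. Non-specific binding used L-364,718 (100 nM added). Bound tracer was filtered on GF/B and gamma-counted.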

Row | Compound | pKi (Mouse cortex) [1] | pKi (Guinea pig pancreas) [2] | Ki [1] [µM] | Ki [2] [µM]
1 | CC(=O)N1[C@H](CCC(C)C)C(=O)N(Cc2ccccc2)c2ccccc2C(=O)C[C@H]1C(=O)NCC(=O)O [Example 38, (3R,5S)-4-acetyl-1-benzyl-5-carboxymethylaminocarbonyl-3-(3,3-dimethyl)propyl-2,7-dioxo-2,3,4,5,6,7-hexahydro-1H-1,4-benzodiazonine] | 5.3 | 5.0 | – | –
2 | CC(=O)N1[C@H](CC23CC4CC(CC(C4)C2)C3)C(=O)N(Cc2ccccc2)c2ccccc2C(=O)C[C@H]1C(=O)NCC(=O)NS(C)(=O)=O [Example 41, (3R,5S)-4-acetyl-3-(1-adamantyl)methyl-1-benzyl-5-methanesulphonamidocarboxymethylaminocarbonyl-2,7-dioxo-2,3,4,5,6,7-hexahydro-1H-1,4-benzodiazonine] | – | – | 0.398 | 10
3 | CC(=O)N1[C@H](CC23CC4CC(CC(C4)C2)C3)C(=O)N(Cc2ccccc2)c2ccccc2C(=O)C[C@H]1C(=O)N(C)CC(=O)O (single isomer, unassigned; isomer 2) [Example 30] | 5.0 | 5.1 | – | –
4 | CCOC(=O)CN1C(=O)CN(C(=O)Nc2cccc(C)c2)CCC(=O)c2ccccc21 [Example 4, 1-ethoxycarbonylmethyl-4-(3-methylphenyl)carbamyl-2,7-dioxo-2,3,4,5,6,7-hexahydro-1H-1,4-benzodiazonine] | – | – | 10 | 3.16
5 | COC(=O)CNC(=O)[C@@H]1CC(=O)c2ccccc2N(Cc2ccccc2)C(=O)[C@@H](CC23CC4CC(CC(C4)C2)C3)N1C(C)=O [Example 37, (3R,5S)-4-acetyl-3-(1-adamantyl)methyl-1-benzyl-5-methoxycarbonylmethylaminocarbonyl-2,7-dioxo-2,3,4,5,6,7-hexahydro-1H-1,4-benzodiazonine] | – | – | 1.58 | 6.31
6 | Nc1cccc(CN2C(=O)C(CC34CC5CC(CC(C5)C3)C4)N(C(=O)CC(=O)O)CCC(=O)c3ccccc32)c1 (racemic) [Example 35, (R/S)-3-(1-adamantyl)methyl-1-(3-amino)benzyl-4-carboxymethylcarbonyl-2,7-dioxo-2,3,4,5,6,7-hexahydro-1H-1,4-benzodiazonine] | – | – | 2.51 | 7.94
7 | COc1ccc(CN2C(=O)[C@@H](CC34CC5CC(CC(C5)C3)C4)N(C(C)=O)[C@H](C(=O)Nc3cc(C(=O)O)cc(C(=O)O)c3)CC(=O)c3ccccc32)cc1 [Example 31] | – | – | 1.58 | 6.31
8 | CC(=O)N1[C@H](CC23CC4CC(CC(C4)C2)C3)C(=O)N(Cc2ccccc2F)c2ccccc2C(=O)C[C@H]1C(=O)NCC(=O)O [Example 59, (3R,5S)-4-acetyl-3-(1-adamantyl)methyl-1-(2-fluorobenzyl)-5-carboxymethyaminocarbonyl-2,7-dioxo-2,3,4,5,6,7-hexahydro-1H-1,4-benzodiazonine] | – | – | 0.1 | 10
9 | Cc1cccc(NC(=O)N2CCC(C)c3ccccc3N(Cc3ccccc3)C(=O)C2)c1 (stereo not drawn) [Example 10, 1-benzyl-7-methyl-4-(3-methylphenyl)carbamyl-2-oxo-2,3,4,5,6,7-hexahydro-1H-1,4-benzodiazonine] | – | – | 2.51 | 0.316
10 | CC(=O)N1[C@H](CC23CC4CC(CC(C4)C2)C3)C(=O)N(Cc2ccccc2)c2ccccc2C(=O)C[C@H]1C(=O)NC(C)(C)C(=O)O [Example 26, (3R,5S)-4-acetyl-3-(1-adamantyl)methyl-1-benzyl-5-(1-carboxy-1-methyl)ethylaminocarbonyl-2,7-dioxo-2,3,4,5,6,7-hexahydro-1H-1,4-benzodiazonine] | – | – | 1 | 6.31
11 | CC(=O)N1[C@H](CC23CC4CC(CC(C4)C2)C3)C(=O)N(Cc2ccccc2)c2ccccc2C(=O)C[C@H]1C(=O)N1CCC[C@H]1C(=O)O (single isomer, unassigned; isomer 1) [Example 27] | 5.0 | 5.0 | – | –
12 | COc1ccc(CN2C(=O)[C@@H](CC34CC5CC(CC(C5)C3)C4)N(C(C)=O)[C@H](C(=O)O)CC(=O)c3ccccc32)cc1 [Example 14, (3R,5S)-4-acetyl-3-[(1-adamantyl)methyl]-1-(4-methoxy)benzyl-2,7-dioxo-2,3,4,5,6,7-hexahydro-1H-1,4-benzodiazonine-5-carboxylate] | – | – | 2.51 | 3.16
13 | CC(=O)N1[C@@H](C(=O)NCC(=O)O)CC(=O)c2ccccc2N(Cc2ccccc2)C(=O)[C@@H]1CC12CC3CC(CC(C3)C1)C2 [Example 36, (3S,5R)-4-acetyl-3-(1-adamantyl)methyl-1-benzyl-5-carboxymethylaminocarbonyl-2,7-dioxo-2,3,4,5,6,7-hexahydro-1H-1,4-benzodiazonine] | – | – | 3.16 | 5.01
14 | CC(=O)N1[C@H](CC2CCCCC2)C(=O)N(Cc2ccccc2)c2ccccc2C(=O)C[C@H]1C(=O)NCC(=O)O [Example 40, (3R,5S)-4-acetyl-1-benzyl-5-carboxymethylaminocarbonyl-3-cyclohexylmethyl-2,7-dioxo-2,3,4,5,6,7-hexahydro-1H-1,4-benzodiazonine] | 5.4 | 4.7 | – | –
15 | C=C1CCN(C(=O)Nc2cccc(C)c2)CC(=O)N(Cc2ccccc2)c2ccccc21 [Example 9, 1-benzyl-7-methylene-4-(3-methylphenyl)carbamyl-2-oxo-2,3,4,5,6,7-hexahydro-1H-1,4-benzodiazonine] | – | – | 3.98 | 0.316
16 | CC(=O)N1[C@H](CC23CC4CC(CC(C4)C2)C3)C(=O)N(Cc2ccccc2)c2ccccc2C(=O)C[C@H]1C(=O)N1CCC[C@H]1C(=O)O (single isomer, unassigned; isomer 2) [Example 28] | 5.4 | 4.6 | – | –
17 | Cc1cccc(NC(=O)N2CCC(=O)c3ccccc3NC(=O)C2)c1 [Example 5, 4-(3-methylphenyl)carbamyl-2,7-dioxo-2,3,4,5,6,7-hexahydro-1H-1,4-benzodiazonine] | – | – | 10 | 5.01
18 | CCC1CCN(C(=O)Nc2ccc(Cl)c(Cl)c2)CC(=O)N(Cc2ccccc2)c2ccccc21 (stereo not drawn) [Example 52, 1-benzyl-7-ethyl-4-(3,4-dichlorophenyl)carbamyl-2-oxo-2,3,4,5,6,7-hexahydro-1H-1,4-benzodiazonine] | – | – | 10 | 0.2
19 | CC(=O)N1[C@H](CC23CC4CC(CC(C4)C2)C3)C(=O)N(Cc2cccc(N)c2)c2ccccc2C(=O)C[C@H]1C(=O)O [Example 17, (3R,5S)-4-acetyl-3-[(1-adamantyl)methyl]-1-(3-amino)benzyl-2,7-dioxo-2,3,4,5,6,7-hexahydro-1H-1,4-benzodiazonine-5-carboxylate] | – | – | 1.26 | 6.31
20 | CC(C)(C)OC(=O)CN1C(=O)CN(C(=O)OCc2ccccc2)CCC(=O)c2ccccc21 [Example 42, 4-benzyloxycarbonyl-1-tert-butyloxycarbonylmethyl-2,7-dioxo-2,3 4,5,6,7-hexahydro-1H-1,4-benzodiazonine] | – | – | 20 | 10
21 | Cc1cccc(NC(=O)N2CCC(O)c3ccccc3N(Cc3ccccc3)C(=O)C2)c1 (single isomer, unassigned; isomer 2) [Example 8, 1-benzyl-7-hydroxy-4-(3-methylphenyl)carbamyl-2-oxo-2,3,4,5,6,7-hexahydro-1H-1,4-benzodiazonine (isomer 2)] | – | – | 10 | 1
